# Structures can show the parent of a compound that is named as a salt. Where two headings read alike, the source gives them in different places.
# System: PRKACA-PRKAR2A interaction (SmBiT-PRKACA / LgBiT-PRKAR2A), protein kinase A
# Design: NanoLuc complementation counter-screen in cell extract, PRKACA with PRKAR2A, loss of luminescence, detects NanoLuc interference
# Conditions: 0.5 h, 20 µM, inhibitor
# [1] = counter-screen for NanoLuc interference
SMILES,Inh (PKA) [1] [%],further results
"CCN[C@H]1CN(CCCOC)S(=O)(=O)c2sc(S(N)(=O)=O)cc21 [UM0118906:03, Brinzolamide]",-0.219,
"CCN[C@H]1C[C@H](C)S(=O)(=O)c2sc(S(N)(=O)=O)cc21 [UM0118923:03, Dorzolamide HCl]",-0.4651,
"O=P1(NCCCl)OCCCN1CCCl (centres unmarked) [UM0118931:03, Ifosfamide]",,Inh (PKA): -0.3336%
"CS(=O)(=O)c1ccc([C@@H](O)[C@@H](CF)NC(=O)C(Cl)Cl)cc1 [UM0118980:03, Florfenicol]",-0.2471,
"Cc1c(OCC(F)(F)F)ccnc1C[S+]([O-])c1nc2ccccc2[nH]1 (centres unmarked) [UM0118982:03, Lansoprazole]",1.885,
"Cc1c(OCC(F)(F)F)ccnc1C[S@@+]([O-])c1nc2ccccc2[nH]1 [UM0118982:04, Dexlansoprazole]",2.726,
"CC(C)(Oc1ccc(C2CC2(Cl)Cl)cc1)C(=O)O (centres unmarked) [UM0119000:03, Ciprofibrate]",9.84,
"CCOC(=O)c1ccc(OC(=O)CCCCCNC(=N)N)cc1 [UM0119043:03, Gabexate mesylate]",2.691,
"Nc1ccc(O)c(C(=O)O)c1 [UM0119062:03, Mesalamine]",8.926,
"CC(C)(C(=O)c1cccnc1)c1cccnc1 [UM0119067:03, Metyrapone]",1.858,
"Cc1cccc(Nc2ccncc2S(=O)(=O)NC(=O)NC(C)C)c1 [UM0119116:03, Torsemide]",21.46,
"O=C(O[C@@H]1Cc2c(O)cc(O)cc2O[C@@H]1c1cc(O)c(O)c(O)c1)c1cc(O)c(O)c(O)c1 [UM0119174:03, (-)-Epigallocatechin gallate (EGCG)]",17.48,
"O=C1Cc2c([nH]c3ccc(Br)cc23)-c2ccccc2N1 [UM0119194:04, Kenpaullone]",40.47,
"O=c1oc2c(O)c(O)cc3c(=O)oc4c(O)c(O)cc1c4c23 [UM0119370:03, Ellagic acid]",2.639,
"CCCCCCCCCCC[C@@H](C[C@@H]1OC(=O)[C@H]1CCCCCC)OC(=O)[C@H](CC(C)C)NC=O [UM0119382:03, Orlistat]",-0.3481,
"C=CCc1ccc(O)c(-c2ccc(O)c(CC=C)c2)c1 [UM0119411:03, Honokiol]",48.27,
"c1ccc2c(Cc3c[nH]c4ccccc34)c[nH]c2c1 [UM0119470:03, 3,3'-Diindolylmethane]",34.9,
"Nc1ccncc1 [UM0119500:03, 4-Aminopyridine]",0.4521,
"CC(=O)Oc1ccccc1C(=O)O [UM0119503:03, Aspirin (Acetylsalicylic acid)]",1.275,
"CC(=O)N[C@@H](CS)C(=O)O [UM0119535:03, Acetylcysteine]",1.097,
"COc1ccc(C(=O)N2CCCC2=O)cc1 [UM0119560:03, Aniracetam]",4.422,
"NC(=O)c1ccccc1 [UM0119596:03, Benzamide]",-0.9754,
"O=C1CCc2cc(OCCCCc3nnnn3C3CCCCC3)ccc2N1 [UM0119639:03, Cilostazol]",4.034,
"C[C@@](Cc1ccc(O)c(O)c1)(NN)C(=O)O [UM0119735:03, Carbidopa]",2.512,

SMILES,Inh (PKA) [1] [%],further results
"NCCc1ccc(O)c(O)c1 [UM0119875:03, Dopamine HCl]",1.983,
"NCCc1c[nH]cn1 [UM0119882:03, Histamine 2HCl]",,"Inh (PKA) (counter-screen for NanoLuc interference, Inh (PKA)): 0.5416%"
"O=S(=O)(c1cccc2c(I)cccc12)N1CCCNCC1 [UM0119920:03, ML-7 hydrochloride]",17.89,
"COc1ccc2c(c1)c(CC(=O)N1CCOCC1)c(C)n2C(=O)c1ccc(Cl)cc1 [UM0119946:02, BML-190]",40.28,
"Nc1nnc(-c2cccc(Cl)c2Cl)c(N)n1 [UM0119947:03, Lamotrigine]",0.956,
"COc1cc2c(cc1O)CC[C@@H]1[C@@H]2CC[C@]2(C)[C@@H](O)CC[C@@H]12 [UM0119979:04, 2-Methoxyestradiol (2-MeOE2)]",12.97,
"NC(=O)c1ncn([C@@H]2O[C@H](CO)[C@@H](O)[C@H]2O)c1O [UM0119983:03, Mizoribine]",-0.2089,
"CSC(=N)N [UM0119990:03, (S)-Methylisothiourea sulfate]",-0.9184,
"O=[N+]([O-])c1cccc2cn[nH]c12 [UM0120050:03, 7-Nitroindazole]",2.182,
"CC(C)N(CCC(=O)c1ccc2ccccc2c1)Cc1ccccc1 [UM0120052:04, ZM 39923 HCl]",18.59,
"CNC[C@H](O)c1cccc(O)c1 [UM0120096:03, Phenylephrine HCl]",0.7851,
"S=C(S)N1CCCC1 [UM0120164:03, Pyrrolidinedithiocarbamate ammonium]",13.75,
"NCCS(=O)(=O)O [UM0120232:03, Taurine]",-1.533,
"N#CC(C#N)=Cc1ccc(O)c(O)c1 [UM0120250:03, AG-18]",48.6,
"CC(C)(C)c1cc(C=C(C#N)C#N)cc(C(C)(C)C)c1O [UM0120315:03, Tyrphostin 9]",80.34,
"Nc1nccs1 [UM0120610:02, Aminothiazole]",1.156,
"O=c1oc2cc(O)ccc2s1 [UM0120621:02, Tioxolone]",1.741,
"N[C@@H](CCC(=O)N[C@@H](CS)C(=O)NCC(=O)O)C(=O)O [UM0120654:03, L-Glutathione Reduced]",-0.7865,
"O=C(O)c1cc(O)c(O)c(O)c1 [UM0120666:03, Gallic acid]",-0.4526,
"Cc1cc(O)c2c(c1)C(=O)c1cccc(O)c1C2=O [UM0121046:03, Chrysophanol]",14.51,
"CN(C)CCC[C@@]1(c2ccc(F)cc2)OCc2cc(C#N)ccc21 [UM0121246:02, Escitalopram Oxalate]",-0.3205,
"CCC(=O)NCC[C@@H]1CCc2ccc3c(c21)CCO3 [UM0121254:03, Ramelteon]",6.005,
"COc1ccnc(C[S+]([O-])c2nc3cc(OC(F)F)ccc3[nH]2)c1OC (centres unmarked) [UM0121277:03, Pantoprazole]",-0.2371,
"Cc1ccc(-c2cc(C(F)(F)F)nn2-c2ccc(S(N)(=O)=O)cc2)cc1 [UM0121289:03, Celecoxib]",16.21,

SMILES,Inh (PKA) [1] [%],further results
"Cc1onc(-c2ccccc2)c1-c1ccc(S(N)(=O)=O)cc1 [UM0121300:03, Valdecoxib]",9.885,
"CN(CCOc1ccc(CC2SC(=O)NC2=O)cc1)c1ccccn1 (centres unmarked) [UM0121306:03, Rosiglitazone]",12.71,
"CN(C)CCc1c[nH]c2ccc(C[C@H]3COC(=O)N3)cc12 [UM0121308:03, Zolmitriptan]",-0.4605,
"CCOC(=O)[C@H](CCc1ccccc1)N[C@H]1CCc2ccccc2N(CC(=O)O)C1=O [UM0121340:03, Benazepril HCl]",-0.4329,
"O=C(O)CC(O)(CC(=O)O)C(=O)O [UM0121350:03, Lithium Citrate]",-1.116,
"Oc1c(Cl)cc(Cl)c(Cl)c1Cc1c(O)c(Cl)cc(Cl)c1Cl [UM0121388:04, Hexachlorophene]",52.78,
"CC[C@H]1OC(=O)[C@H](C)[C@@H](O[C@H]2C[C@@](C)(OC)[C@@H](O)[C@H](C)O2)[C@H](C)[C@@H](O[C@@H]2O[C@H](C)C[C@H](N(C)C)[C@H]2O)[C@](C)(O)C[C@@H](C)CN(C)[C@H](C)[C@@H](O)[C@]1(C)O [UM0121404:03, Azithromycin]",0.6112,
"CC[C@H]1OC(=O)[C@H](C)[C@@H](O[C@H]2C[C@@](C)(OC)[C@@H](O)[C@H](C)O2)[C@H](C)[C@@H](O[C@@H]2O[C@H](C)C[C@H](N(C)C)[C@H]2O)[C@](C)(OC)C[C@@H](C)C(=O)[C@H](C)[C@@H](O)[C@]1(C)O [UM0121462:03, Clarithromycin]",0.9252,
"COC(=O)N[C@H](C(=O)N1CCC[C@H]1c1ncc(-c2ccc(-c3ccc(-c4cnc([C@@H]5CCCN5C(=O)[C@@H](NC(=O)OC)C(C)C)[nH]4)cc3)cc2)[nH]1)C(C)C [UM0125917:02, Daclatasvir (BMS-790052)]",3.854,
"O=c1cc(-c2cccc3c2Sc2ccccc2S3)oc(N2CCOCC2)c1 [UM0127803:03, KU 55933]",14.3,
"CC(C)(C)c1cc(C=C(C#N)C#N)cc(Br)c1O [UM0127805:02, AG-1024]",81.26,
"O=c1[nH]c2ccccc2n1C1CCN(Cc2ccc(-c3[nH]c4cc5ncnc5cc4nc3-c3ccccc3)cc2)CC1 [UM0127809:02, AKT inhibitor VIII]",16.69,
"c1cc(-c2cnn3cc(-c4ccc(OCCN5CCCCC5)cc4)cnc23)ccn1 [UM0127814:02, Dorsomorphin]",19.2,
"CN(C)CCCn1cc(C2=C(c3c[nH]c4ccccc34)C(=O)NC2=O)c2ccccc21 [UM0127819:02, GF 109203X]",67.69,
"NC(=O)c1ccc(-c2nc(-c3ccc4c(c3)OCCO4)c(-c3ccccn3)[nH]2)cc1 [UM0127827:02, D4476]",37.52,
"COc1ccc(CNc2nc(N(CCO)CCO)nc3c2ncn3C(C)C)cc1 [UM0127838:02, CVT-313]",6.845,
"Nc1[nH]nc2nnc(-c3c(-c4ccccc4)nn4ccccc34)cc12 [UM0127848:03, FR 180204]",1.354,
"COc1ccc(C(=O)Nc2sc3c(c2C(N)=O)CCCC3)cc1OC [UM0127852:02, TCS 359]",19.65,
"COc1ccc(COc2ccc(Cc3cnc(N)nc3N)cc2OC)cc1 [UM0127855:02, GW2580]",7.237,
"Cn1sc(=O)n(Cc2ccccc2)c1=O [UM0127856:02, TDZD-8]",41.7,
"COc1ccc(CNC(=O)Nc2ncc([N+](=O)[O-])s2)cc1 [UM0127858:02, AR-A014418]",66.01,
"Nc1cccc(-c2cc3c(Oc4cccc(O)c4)ncnc3[nH]2)c1 [UM0127862:03, TWS119]",24.46,
"COc1ccc2c(c1)c(C1=C(c3c[nH]c4ccccc34)C(=O)NC1=O)cn2CCCN(C)C [UM0127865:02, Go 6983]",49.99,
